In patent US8030481B2, “Stevioside polymorphic and amorphous forms, methods for their formulation, and uses” (The Coca-Cola Company, priority 2007, dated 2011):

Legend:
[1] = rate of dissolution in H2O at 25° C.; assay type: physicochemical; conditions: for Rate of dissolution in H2O at 25° C.: time: time for the amount printed in the same cell (see E2); for Rate of dissolution in H2O at 25° C.: amount dissolved: within the time printed in the same cell (see E3)
[2] = moisture content (Karl Fischer analysis); assay type: physicochemical
Experimental: Karl-Fischer analysis also was performed on the stevioside compositions obtained hereinbelow to determine the water content using a Mettler Toledo DL39 Karl Fischer titrator. Approximately 11-56 mg of sample were dissolved in approximately 3.5-3.7 g of dry Hydranal-Coulmat AD. Approximately 0.9-1.0 g of the resulting solution was placed in the KF titration vessel containing Hydranal-Coulomat AD and mixed for 10 seconds to ensure dissolution. The sample was titrated by means of a generator electrode which produces iodine by electrochemical oxidation: 2 I^−→I2+2e. The experiments were repeated in triplicate to ensure reproducibility.

[3] = room temperature; from U.S. Pat. No. 4,082,858; cited from earlier work

| Rate of dissolution in H2O at 25° C.: time [1] | Rate of dissolution in H2O at 25° C.: amount dissolved [1] | Moisture content [2] | rate of dissolution as compared to the polymorph forms of stevioside ([1]; in words) | Structure (SMILES) | water solubility [3] |
| --- | --- | --- | --- | --- | --- |
| <1.0 min | 10.0% in | <4% | – | C=C1C[C@@]23CC[C@H]4[C@@](C)(CCC[C@@]4(C)C(=O)O[C@@H]4O[C@H](CO)[C@@H](O)[C@H](O)[C@H]4O)[C@@H]2CC[C@]1(O[C@@H]1O[C@H](CO)[C@@H](O)[C@H](O)[C@H]1O[C@@H]1O[C@H](CO)[C@@H](O)[C@H](O)[C@H]1O)C3 [Form 2B, stevioside] | – |
| <1.0 min | 40.0% in | ~3% | improved rate of dissolution | C=C1C[C@@]23CC[C@H]4[C@@](C)(CCC[C@@]4(C)C(=O)O[C@@H]4O[C@H](CO)[C@@H](O)[C@H](O)[C@H]4O)[C@@H]2CC[C@]1(O[C@@H]1O[C@H](CO)[C@@H](O)[C@H](O)[C@H]1O[C@@H]1O[C@H](CO)[C@@H](O)[C@H](O)[C@H]1O)C3 [Form 4, stevioside] | – |
| 2 min | <0.6% in | <3% | – | C=C1C[C@@]23CC[C@H]4[C@@](C)(CCC[C@@]4(C)C(=O)O[C@@H]4O[C@H](CO)[C@@H](O)[C@H](O)[C@H]4O)[C@@H]2CC[C@]1(O[C@@H]1O[C@H](CO)[C@@H](O)[C@H](O)[C@H]1O[C@@H]1O[C@H](CO)[C@@H](O)[C@H](O)[C@H]1O)C3 [Form 2 A, stevioside] | – |
| 30 min | <0.075% in | >5% | – | C=C1C[C@@]23CC[C@H]4[C@@](C)(CCC[C@@]4(C)C(=O)O[C@@H]4O[C@H](CO)[C@@H](O)[C@H](O)[C@H]4O)[C@@H]2CC[C@]1(O[C@@H]1O[C@H](CO)[C@@H](O)[C@H](O)[C@H]1O[C@@H]1O[C@H](CO)[C@@H](O)[C@H](O)[C@H]1O)C3 [Form 1, stevioside] | – |
| – | – | – | – | C=C1C[C@@]23CC[C@H]4[C@@](C)(CCC[C@@]4(C)C(=O)O[C@@H]4O[C@H](CO)[C@@H](O)[C@H](O)[C@H]4O)[C@@H]2CC[C@]1(O[C@@H]1O[C@H](CO)[C@@H](O)[C@H](O)[C@H]1O[C@@H]1O[C@H](CO)[C@@H](O)[C@H](O)[C@H]1O)C3 [stevioside, Stevioside] | approximately 1.25 g/L |
